The test system of experiment [1] is NCI-H292 lung cancer cells. As to the kind of experiment: FDA drug screening, complete media vs cholesterol-free media with simvastatin (TABLE 2). The conditions noted are these: for Cholesterol-free media + simvastatin (0.04 μM) / Complete Media: NCI-H292 cells. Format: cell-based, human.
Experiment [2] deals with NCI-H292 lung cancer cells. As to the kind of experiment: FDA drug screening, complete media vs cholesterol-free media without statin (TABLE 1). Format: cell-based, human.
[3] abbreviates: FDA drug library screen, cholesterol-free media with simvastatin 0.04 μM.
Setting [4] is: FDA drug library screen, complete media.
Setting [5] is: complete media minus cholesterol-free media + simvastatin, […].
The mark [6] stands for this setting: NCI-H292 cells, cholesterol-free media without statin.
The mark [7] stands for this setting: complete vs cholesterol-free media, […].
The mark [8] stands for this setting: drug in cholesterol-free media with simvastatin 0.04 μM.
Where [9] appears, read: complete media vs cholesterol-free media + simvastatin (0.04 μM), >0 enhanced anti-cancer activity, about 0 neutral, <0 antagonist.
The mark [10] stands for this setting: Complete minus Cholesterol-free, >0 enhanced anti-cancer activity, about 0 neutral, <0 antagonist.
[11] abbreviates: Complete minus Cholesterol-free, […].
Setting [12] is: cholesterol-free media with simvastatin 0.04 μM, cell growth value in FDA drug screen.
The mark [13] stands for this setting: complete media, cell growth value in FDA drug screen.
The mark [14] stands for this setting: complete media minus cholesterol-free media + simvastatin, >0 enhanced anti-cancer activity, about 0 neutral, <0 antagonist.
Setting [15] is: NCI-H292 cells, cholesterol-free media without statin, FDA drug library screen.
The mark [16] stands for this setting: complete vs cholesterol-free media, >0 enhanced anti-cancer activity, about 0 neutral, <0 antagonist.
[17] abbreviates: NCI-H292 cells, complete media, FDA drug library screen.

This note sets out measurements from patent US20250144067A1, “PERSONALIZED STARVATION THERAPY FOR CANCER” (Faeth Therapeutics, Inc., priority 2021, published 2025).

Turning to `O=[N+]([O-])O[C@@H]1CO[C@H]2[C@@H]1OC[C@@H]2O` [Isosorbide mononitrate], in experiment [1] (setting [3]), the “Cholesterol-free media + simvastatin (0.04 μM)” value was 0.8339. For the same compound, in experiment [1] (setting [4]), the “Complete Media” value worked out at 1.021. Moreover, the Difference in experiment [1] (setting [5]) is listed as 0.19; in experiment [2] (setting [7]) it was −0.33. The compound also showed a Cholesterol-free in experiment [2] (setting [6]) of 1.459. The compound further returned a Complete in experiment [2] (NCI-H292 cells, complete media) of 1.127.
As for `Clc1ccc(C(c2ccccc2Cl)C(Cl)Cl)cc1` (stereo not shown) [Mitotane], the “Cholesterol-free media + simvastatin (0.04 μM)” value in experiment [1] (setting [8]) is reported as 1.345. The “Complete Media” value in experiment [1] (drug in complete media) is given as 1.125. Further, the Difference in experiment [1] (setting [9]) is listed as −0.22; in experiment [2] (setting [10]), −0.20. The same compound came in with a Cholesterol-free in experiment [2] (setting [6]) of 1.108. Moreover, the Complete in experiment [2] (NCI-H292 cells, complete media) came to 0.9109.
In the case of `Cl.NCCCC[C@H](N)C(=O)O` [L-Lysine hydrochloride], the “Cholesterol-free media + simvastatin (0.04 μM)” value in experiment [1] (setting [3]) is recorded as 1.192. Besides, in experiment [1] (setting [4]), the “Complete Media” value was determined as 1.079. In addition, the Difference is −0.11 in experiment [1] (complete media vs cholesterol-free media + simvastatin (0.04 μM), […]) and −0.25 in experiment [2] (setting [11]). In experiment [2] (setting [6]), this compound showed a Cholesterol-free of 1.006. For the same compound, the Complete in experiment [2] (NCI-H292 cells, complete media) worked out at 0.7519.
Take `O=C(O)c1ccc(-n2nc(-c3ccccc3O)nc2-c2ccccc2O)cc1` [Deferasirox]: in experiment [1] (setting [8]), the “Cholesterol-free media + simvastatin (0.04 μM)” value amounted to 1.22. Further, the “Complete Media” value in experiment [1] (drug in complete media) is given as 0.9596. For the same compound, the Difference is listed as −0.26 in experiment [1] (setting [9]) and −0.45 in experiment [2] (complete vs cholesterol-free media, greater than 0 enhanced anti-cancer activity, about 0 neutral, below 0 antagonists). This compound also had a Cholesterol-free in experiment [2] (setting [6]) of 1.441. The compound further had a Complete in experiment [2] (NCI-H292 cells, complete media) of 0.9894.
With `CC(C)NCC(O)COc1ccc(CC(N)=O)cc1` (stereo not shown) [Atenolol], in experiment [1] (setting [12]), the “Cholesterol-free media + simvastatin (0.04 μM)” value was found to be 0.9412. Further, the “Complete Media” value in experiment [1] (setting [13]) came out at 1.006. The figures for the Difference in experiment [1] (setting [14]) and in experiment [2] (setting [10]) were 0.06 and −0.26, respectively. The compound further came in with a Cholesterol-free in experiment [2] (setting [6]) of 1.429.
Turning to Metaproterenol (hemisulfate), in experiment [1] (setting [8]), the “Cholesterol-free media + simvastatin (0.04 μM)” value is on record as 1.002. Moreover, the “Complete Media” value in experiment [1] (drug in complete media) is recorded as 0.7891. The figures for the Difference in experiment [1] (setting [9]) and in experiment [2] (setting [16]) were −0.21 and 0.09, respectively. Moreover, in experiment [2] (setting [15]), the Cholesterol-free worked out at 0.8425.
`CC(C)OC(=O)CNc1cccc(CN(Cc2ccc(-n3cccn3)cc2)S(=O)(=O)c2cccnc2)n1` [Omidenepag isopropyl]: the “Cholesterol-free media + simvastatin (0.04 μM)” value in experiment [1] (setting [12]) came out at 1.236. In experiment [1] (setting [13]), the “Complete Media” value was 1.286. Moreover, the Difference in experiment [1] (setting [14]) is listed as 0.05; in experiment [2] (Complete minus Cholesterol-free, greater than 0 enhanced anti-cancer activity, about 0 neutral, below 0 antagonists), −0.75. Besides, the Cholesterol-free in experiment [2] (NCI-H292 cells in cholesterol-free media without statin) turned out to be 1.563. Besides, in experiment [2] (NCI-H292 cells in complete media), the Complete was 0.8153.
For Rilmenidine (phosphate), in experiment [1] (cholesterol-free media with simvastatin 0.04 μM, FDA drug library screen (TABLE 2)), the “Cholesterol-free media + simvastatin (0.04 μM)” value worked out at 1.249. Besides, in experiment [1] (complete media, FDA drug library screen (TABLE 2)), the “Complete Media” value came out at 1.215. The Difference is listed as −0.03 in experiment [1] (complete media minus cholesterol-free media + simvastatin (0.04 μM), […]) and 0.01 in experiment [2] (setting [11]). Also, in experiment [2] (setting [15]), the Cholesterol-free is reported as 0.9893. Besides, the Complete in experiment [2] (setting [17]) came out at 0.995.
As to `CC(C)(Oc1ccc(Cl)cc1)C(=O)O` [Clofibric acid], the “Cholesterol-free media + simvastatin (0.04 μM)” value in experiment [1] (setting [12]) is on record as 1.015. Moreover, the “Complete Media” value in experiment [1] (setting [13]) is recorded as 1.071. Also, the Difference in experiment [1] (setting [14]) was 0.06; in experiment [2] (Complete minus Cholesterol-free, greater than 0 enhanced anti-cancer activity, about 0 neutral, below 0 antagonist), −0.18. This compound returned a Cholesterol-free in experiment [2] (NCI-H292 cells, FDA drug library screen, cholesterol-free media without statin) of 0.9932. In addition, the Complete in experiment [2] (NCI-H292 cells, FDA drug library screen, complete media) came out at 0.8121.
Take `C=C1CC[C@@H]2[C@](C)(COC(=O)CCC(=O)[O-])[C@H](OC(=O)CCC(=O)O)CC[C@@]2(C)[C@@H]1/C=C/C1=CCOC1=O.[K+]` [Kalii Dehydrographolidi Succinas]: in experiment [1] (setting [3]), the “Cholesterol-free media + simvastatin (0.04 μM)” value is 0.8904. In addition, the “Complete Media” value in experiment [1] (setting [4]) is given as 1.183. The figures for the Difference in experiment [1] (setting [5]) and in experiment [2] (setting [7]) were 0.29 and −0.31, respectively. In experiment [2] (setting [6]), the Cholesterol-free came to 1.388. The same compound registered a Complete in experiment [2] (NCI-H292 cells, complete media) of 1.081.
Consider `CS(=O)(=O)c1ccc([C@@H](O)[C@@H](CO)NC(=O)C(Cl)Cl)cc1` [Thiamphenicol], for which the “Cholesterol-free media + simvastatin (0.04 μM)” value in experiment [1] (setting [3]) came to 0.911. Moreover, the “Complete Media” value in experiment [1] (setting [4]) is listed as 0.7958. Also, the Difference in experiment [1] (setting [9]) is given as −0.12; in experiment [2] (setting [16]), 0.10. The compound also had a Cholesterol-free in experiment [2] (setting [15]) of 0.8085. The compound further showed a Complete in experiment [2] (setting [17]) of 0.9105.
